Tests used:
[1] = molecular target: HR1–HR2 interaction (MBP-HR1 / ALP-HR2) of SARS-CoV-2 (Severe acute respiratory syndrome coronavirus 2, UniProt P0DTC2); assay: SPICA: inhibition of the HR1–HR2 interaction; type: binding; conditions: for IC50: pIC50 ± SD, 20 nM MBP-HR1 coated, 5 nM ALP-HR2, MES pH 6.4, OD630, SD; for inhibition of the HR1–HR2 interaction of SARS-CoV-2 (in words): negative controls
[2] = test system: VeroE6/TMPRSS2 cells; assay: Cytotoxicity, MTT assay; type: cell-based, African green monkey; conditions: mock cell viability, 3 days

Row | SMILES | IC50 [1] [µM] | inhibition of the HR1–HR2 interaction of SARS-CoV-2 (in words) [1] | pCC50 ± SD [2]
1 | CC[C@H](C)[C@H](NC(=O)[C@H](C)NC(=O)[C@H](CCC(=O)O)NC(=O)[C@H](CCC(=O)O)NC(=O)[C@H](CC(C)C)NC(=O)[C@H](CCCCN)NC(=O)[C@H](CCCCN)NC(=O)[C@H](CCSC)NC(=O)[C@H](CCC(=O)O)NC(=O)[C@H](Cc1ccc(O)cc1)NC(=O)[C@H](CCC(=O)O)NC(=O)[C@H](CC(C)C)NC(=O)[C@H](CC(=O)O)NC(=O)[C@H](CC(C)C)NC(=O)[C@H](Cc1ccccc1)NC(=O)[C@@H](NC(=O)[C@@H](NC(=O)[C@H](CC(N)=O)NC(=O)[C@@H](NC(=O)[C@H](CCC(N)=O)NC(=O)[C@H](CC(=O)O)NC(=O)[C@H](CC(C)C)NC(=O)[C@@H](N)CO)[C@@H](C)CC)C(C)C)[C@@H](C)O)C(=O)N[C@@H](CCCCN)C(=O)N[C@@H](CCCCN)C(=O)N[C@@H](CC(C)C)C(=O)N[C@@H](CCC(=O)O)C(=O)N[C@@H](CCC(=O)O)C(=O)N[C@@H](CO)C(=O)N[C@@H](Cc1ccc(O)cc1)C(=O)N[C@H](C(=O)N[C@@H](CC(=O)O)C(=O)N[C@@H](CC(C)C)C(=O)N[C@@H](CCCCN)C(=O)N[C@@H](CCC(=O)O)C(=O)N[C@@H](CC(C)C)C(=O)O)[C@@H](C)CC [EK1] | 0.001 |  | 
2 | Cc1nnnn1N=Cc1ccc(O)c(C(c2ccc(O)cc2)c2cc(C=Nn3nnnc3C)ccc2O)c1 (centres unmarked) [VP-14637] | 25.1 | failed to block the HR1–HR2 interaction | 
3 | CCC(CC)COC(=O)[C@H](C)N[P@](=O)(OC[C@H]1O[C@@](C#N)(c2ccc3c(N)ncnn23)[C@H](O)[C@@H]1O)Oc1ccccc1 [remdesivir] |  | no inhibitory effect | 4.2 ± 0.1

Reference: publication PMC10849125 (RSC Chemical Biology, 2023)
